Assay results: ChEMBL document CHEMBL1201862, “PubChem BioAssay data set” (2004)
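Where inhibition never reached the appropriate level, the endpoint shown equals the highest concentration tested. Otherwise, values were interpolated linearly from a five-concentration, 48-hour dose response in 96-well plates. Abbreviation: GI50, concentration required for 50% inhibition of growth.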 Calls of active or inactive are those of the source. No stated cut-off is given here; in the data, active = GI50 up to about 1.1 µM and inactive = higher. Where a SMILES comes first, the peptide text is derived from it. [ ]: non-standard residue; d: D form. The star is where a group is joined. Phe(4-NO2) = N[CH](Cc1ccc([N+](=O)[O-])cc1)C(=O)O; Boc = CC(C)(C)OC(=O)*

Assays:
Experiment in all cases: NCI-60 cell line screen, 48 h
[1] = test system: HCC 2998
[2] = test system: RPMI-8226
[3] = test system: NCI-H226
[4] = test system: CAKI-1
[5] = test system: Hs-578T
[6] = test system: K562
[7] = test system: TK-10
[8] = test system: A498
[9] = test system: SF-268
[10] = test system: MCF7
[11] = test system: ACHN
[12] = test system: LOX IMVI
[13] = test system: MDA-MB-231
[14] = test system: A549
[15] = test system: MDA-MB-435
[16] = test system: CCRF-CEM
[17] = test system: SK-MEL-28
[18] = test system: T47D
[19] = test system: SNB-75
[20] = test system: UACC-257

SMILES	GI50 [1]	GI50 [2]	GI50 [3]	GI50 [4]	GI50 [5]	GI50 [6]	GI50 [7]	GI50 [8]	GI50 [9]	GI50 [10]	GI50 [11]	GI50 [12]	GI50 [13]	GI50 [14]	GI50 [15]	GI50 [16]	GI50 [17]	GI50 [18]	GI50 [19]	GI50 [20]
COc1cc(C2C3=C(COC3=O)Oc3cc4c(cc32)OCO4)cc(OC)c1OC(C)=O (stereo not drawn)	0.0547 µM (active)	0.0318 µM (active)	< 0.0376 µM (active)	< 0.01 µM (active)	0.0101 µM (active)	0.0122 µM (active)	0.966 µM (active)	0.0116 µM (active)	0.0608 µM (active)	< 0.012 µM (active)	< 0.01 µM (active)	0.0331 µM (active)	0.038 µM (active)	0.0462 µM (active)	< 0.01 µM (active)	0.0258 µM (active)				
O=C(C(Cl)Cl)N(O)c1ccccc1OCc1ccccc1	1.9 µM (inactive)	34.2 µM (inactive)	78.3 µM (inactive)	85.9 µM (inactive)	19.5 µM (inactive)	37.6 µM (inactive)	56 µM (inactive)		73.3 µM (inactive)	56.5 µM (inactive)	32.8 µM (inactive)	43.9 µM (inactive)	44.8 µM (inactive)	33.8 µM (inactive)	43.2 µM (inactive)	1.79 µM (inactive)	37.4 µM (inactive)	19.1 µM (inactive)	29.4 µM (inactive)	13.7 µM (inactive)
O=c1cccc(Cl)[nH]1		> 100 µM (inactive)	> 100 µM (inactive)	> 100 µM (inactive)	> 100 µM (inactive)	> 100 µM (inactive)	> 100 µM (inactive)		> 100 µM (inactive)	> 100 µM (inactive)	> 100 µM (inactive)	> 100 µM (inactive)	> 100 µM (inactive)	> 100 µM (inactive)	> 100 µM (inactive)	> 100 µM (inactive)	> 100 µM (inactive)	> 100 µM (inactive)	> 100 µM (inactive)	> 100 µM (inactive)
CC#CCCCC1(C)CCCNC1=S (stereo not drawn)					> 10 µM (inactive)	> 10 µM (inactive)	> 10 µM (inactive)		> 10 µM (inactive)	> 10 µM (inactive)	> 10 µM (inactive)	> 10 µM (inactive)	> 10 µM (inactive)	> 10 µM (inactive)	> 10 µM (inactive)	> 10 µM (inactive)		> 10 µM (inactive)	> 10 µM (inactive)	> 10 µM (inactive)
CNC(Cc1ccccc1)c1cccc(OC)c1O (stereo not drawn)			> 100 µM (inactive)	> 100 µM (inactive)	> 100 µM (inactive)	98.2 µM (inactive)	> 100 µM (inactive)	> 100 µM (inactive)	> 100 µM (inactive)		> 100 µM (inactive)	> 100 µM (inactive)	> 100 µM (inactive)	> 100 µM (inactive)	> 100 µM (inactive)		> 100 µM (inactive)	5 µM (inactive)		18.6 µM (inactive)
O=C(O/N=c1/ccc(=O)/c(=N\OC(=O)c2ccccc2)c1=O)c1ccccc1	> 100 µM (inactive)	79.8 µM (inactive)	> 100 µM (inactive)	> 100 µM (inactive)	> 100 µM (inactive)	39.4 µM (inactive)	> 100 µM (inactive)	> 100 µM (inactive)	> 100 µM (inactive)	1.81 µM (inactive)	> 100 µM (inactive)	> 100 µM (inactive)		> 100 µM (inactive)	53.6 µM (inactive)	33 µM (inactive)	> 100 µM (inactive)	> 100 µM (inactive)	> 100 µM (inactive)	
CCOC(=O)C(=C(SC)SC)c1nn2c(=O)cc(C)nc2s1	18.8 µM (inactive)	17.3 µM (inactive)	21.4 µM (inactive)	24.6 µM (inactive)	43.9 µM (inactive)	19.2 µM (inactive)	23.4 µM (inactive)		22.1 µM (inactive)	20.5 µM (inactive)	18.4 µM (inactive)	15.7 µM (inactive)	27.9 µM (inactive)	49.5 µM (inactive)	16.6 µM (inactive)	22.6 µM (inactive)	17.1 µM (inactive)	17 µM (inactive)	31.4 µM (inactive)	23.9 µM (inactive)
CCCCC1Nc2ccccc2-c2ccnc(Cl)c21 (stereo not drawn)	38.7 µM (inactive)	12.2 µM (inactive)	17.6 µM (inactive)	3.61 µM (inactive)	15 µM (inactive)	20.9 µM (inactive)	33 µM (inactive)	16.8 µM (inactive)	23.1 µM (inactive)	35 µM (inactive)	20.8 µM (inactive)	16.6 µM (inactive)	17.1 µM (inactive)	28.1 µM (inactive)	16.1 µM (inactive)	19.1 µM (inactive)	17.8 µM (inactive)		13.5 µM (inactive)	20 µM (inactive)
CC1C(=O)OCC2=CCN3CCC(OC(=O)C(C)C1(C)O)C23 (stereo not drawn)	> 100 µM (inactive)	> 100 µM (inactive)	> 100 µM (inactive)	> 100 µM (inactive)	> 100 µM (inactive)	> 100 µM (inactive)	> 100 µM (inactive)	> 100 µM (inactive)	> 100 µM (inactive)		> 100 µM (inactive)	> 100 µM (inactive)	> 100 µM (inactive)	> 100 µM (inactive)	> 100 µM (inactive)	> 100 µM (inactive)	> 100 µM (inactive)	> 100 µM (inactive)	> 100 µM (inactive)	> 100 µM (inactive)
Clc1ccc(Oc2ccc(/N=C/c3ccc(Cl)cc3Cl)cc2Cl)cc1	> 100 µM (inactive)	9.2 µM (inactive)	> 100 µM (inactive)	36.5 µM (inactive)	25.9 µM (inactive)		> 100 µM (inactive)		31.8 µM (inactive)	33.7 µM (inactive)	> 100 µM (inactive)	28.3 µM (inactive)	51.3 µM (inactive)	64.6 µM (inactive)	18.5 µM (inactive)	4.29 µM (inactive)	34.2 µM (inactive)	43.6 µM (inactive)	23.6 µM (inactive)	66.1 µM (inactive)
CCN1CCCC(C#N)(c2ccccc2)CC1 (stereo not drawn)	> 100 µM (inactive)	> 100 µM (inactive)		> 100 µM (inactive)	61.7 µM (inactive)	> 100 µM (inactive)	> 100 µM (inactive)	> 100 µM (inactive)	> 100 µM (inactive)		> 100 µM (inactive)			> 100 µM (inactive)		> 10 µM (inactive)	> 100 µM (inactive)	> 100 µM (inactive)	99.5 µM (inactive)	> 100 µM (inactive)
COc1cccc(/C(CC(O)(C(F)(F)F)C(F)(F)F)=N\N(C)C)c1	> 100 µM (inactive)	> 100 µM (inactive)	> 100 µM (inactive)	> 100 µM (inactive)	> 100 µM (inactive)	> 100 µM (inactive)	> 100 µM (inactive)	> 100 µM (inactive)	> 100 µM (inactive)		> 100 µM (inactive)	> 100 µM (inactive)	> 100 µM (inactive)	> 100 µM (inactive)	> 100 µM (inactive)	> 100 µM (inactive)	> 100 µM (inactive)	> 100 µM (inactive)	> 100 µM (inactive)	
O=C1CCCC/C1=C\c1ccc([N+](=O)[O-])cc1	12.3 µM (inactive)	7.57 µM (inactive)		18.5 µM (inactive)	28.3 µM (inactive)	2.82 µM (inactive)	8.67 µM (inactive)		34.6 µM (inactive)	18.5 µM (inactive)	24 µM (inactive)	1.79 µM (inactive)	21.8 µM (inactive)	25.5 µM (inactive)	> 10 µM (inactive)	2.91 µM (inactive)	11.4 µM (inactive)	23.6 µM (inactive)	18.3 µM (inactive)	15.5 µM (inactive)
CCOC(=O)CCC(NC(=O)C(Cc1ccc([N+](=O)[O-])cc1)NC(=O)OC(C)(C)C)C(=O)NC(CCC(=O)OCC)C(=O)OCC (stereo not drawn) (Boc-[Phe(4-NO2)]-Glu(OEt)-Glu(OEt)-OEt; configuration not given here)	15.8 µM (inactive)	18.1 µM (inactive)	16.8 µM (inactive)		18.7 µM (inactive)	> 10 µM (inactive)	15.5 µM (inactive)	19.5 µM (inactive)		28 µM (inactive)	17.4 µM (inactive)		27 µM (inactive)	38.5 µM (inactive)			15.6 µM (inactive)		15.6 µM (inactive)	> 10 µM (inactive)
Nc1ccc(S(=O)(=O)Nc2cnc3ccccc3n2)cc1 [SULFAQUINOXALINE]	> 100 µM (inactive)	> 100 µM (inactive)	> 100 µM (inactive)	> 100 µM (inactive)	< 0.01 µM (active)	> 100 µM (inactive)	> 100 µM (inactive)	> 100 µM (inactive)	> 87.9 µM (inactive)		> 100 µM (inactive)	> 100 µM (inactive)	> 100 µM (inactive)	> 100 µM (inactive)	> 100 µM (inactive)	> 100 µM (inactive)	> 100 µM (inactive)	> 100 µM (inactive)	26.7 µM (inactive)	> 100 µM (inactive)
O=C1CCC(N2C(=O)c3ccccc3C2=O)C(=O)N1 (stereo not drawn) [THALIDOMIDE]	> 100 µM (inactive)	> 100 µM (inactive)		> 100 µM (inactive)	> 100 µM (inactive)	> 100 µM (inactive)			> 100 µM (inactive)	> 100 µM (inactive)	> 100 µM (inactive)			> 100 µM (inactive)	> 100 µM (inactive)	> 100 µM (inactive)		> 100 µM (inactive)	> 100 µM (inactive)	> 100 µM (inactive)
